Laboratory results reported in paper PMC9885530, “Identification of Natural Products Inhibiting SARS-CoV-2 by Targeting Viral Proteases: A Combined in Silico and in Vitro Approach” (Journal of Natural Products, 2023).
Where “and” joins values, the source holds several entries; their conditions need not be identical. Identical values can stand only once. Like-named read-outs stand apart in the source and are kept apart here.

Tests used:
M^pro [1] = target: T1, M^pro (Severe acute respiratory syndrome coronavirus 2, UniProt P0DTD1); test: Competitive 1H CPMG relaxation dispersion NMR with compound 4 as reporter ligand; type: binding, SARS-CoV-2; details: competition with compound 4
[2] = Cytotoxicity in Calu-3 cells; details: human
M^pro [3] = target: T1, M^pro; type: binding; details: 2 μM protein, 50 μM ligand
SARS-CoV-2 M^pro = SARS-CoV-2 M^pro (Severe acute respiratory syndrome coronavirus 2, UniProt P0DTD1); test: biochemical; type: biochemical; details: buffer with 5 mM DTT; for IC50: read-out: SARS-CoV-2 M^pro IC50; for inhibition at 20 µM: 20 μM compound, for values marked a the relative standard deviation of 6% applies, read-out: SARS-CoV-2 M^pro enzyme inhibition (%) 20 μM; for inhibition at 100 µM: 100 μM compound, read-out: SARS-CoV-2 M^pro enzyme inhibition (%) 100 μM
SARS-CoV-2 [4] = test: Antiviral assay in Calu-3 cells (spike staining); type: cell-based
in vitro [5] = details: human
[6] = Cytotoxicity in Caco-2 cells; details: human
M^pro [7] = details: read-out: M^pro IC50 previously reported, cited from earlier work
SARS-CoV-2 [8] = test: Antiviral assay in Caco-2 cells; type: cell-based
SARS-CoV-2 PLpro [9] = target: T2, SARS-CoV-2 PLpro (Severe acute respiratory syndrome coronavirus 2, UniProt P0DTD1); test: PL^pro fluorogenic peptide cleavage assay (substrate Z-RLRGG-AMC); type: biochemical; design: papain-like protease (PL^pro; domain of nsp3); His; purchased BPS Biosciences BPS-100735-1
SARS-CoV-2 PLpro [10] = target: T2, SARS-CoV-2 PLpro; test: biochemical; design: papain-like protease (PL^pro; domain of nsp3); purchased Anaspec (Fremont, USA) AS-72263; details: for SARS-CoV-2 PLpro inhibition % enzyme inhibition (20 µM): commercial Anaspec assay kit; for inhibition at 20 µM: read-out: SARS-CoV-2 PLpro inhibition % enzyme inhibition (20 µM)
in vitro [11] = details: human, Caco-2
[12] = Severe acute respiratory syndrome coronavirus 2, Calu-3 cells, MOI 0.01, 48 h postinfection, read-out: Anti-SARS-CoV-2 activity IC50

| Compound | displacement of reporter ligand 4 from M^pro (CPMG-RD) (M^pro [1]) | CC50 [2] [µM] | STD signals (M^pro [3]) | IC50 (SARS-CoV-2 M^pro) | IC50 (SARS-CoV-2 [4]; [12]) [µM] | inhibition at 20 µM (SARS-CoV-2 M^pro) [%] | inhibition at 100 µM (SARS-CoV-2 M^pro) [%] | CC50 (in vitro [5]) [µM] | SARS-CoV-2 PLpro inhibition % enzyme inhibition (20 µM) (SARS-CoV-2 PLpro [10]) | inhibition at 20 µM (SARS-CoV-2 PLpro [10]) [%] | further results |
| --- | --- | --- | --- | --- | --- | --- | --- | --- | --- | --- | --- |
| CC(C)=CC[C@@]12Oc3cc(O)c([C@H]4C=C(C)C[C@H](c5ccc(O)cc5O)[C@H]4C(=O)c4ccc(O)cc4O)c(O)c3C(=O)[C@]1(O)Oc1cc(O)ccc12 [Compound 13, sanggenon O] | did not significantly displace 4 | 24.9 | no STD signals were detected | 6.7 µM | 8 | – | – | – | – | – | – |
| CC(C)=CCCC1=C[C@H](c2c(O)cc3c(c2O)C(=O)C[C@@H](c2ccc(O)cc2O)O3)[C@@H](C(=O)c2ccc(O)cc2O)[C@H](c2ccc(O)cc2O)C1 [Compound 15, sanggenon G] | displacement from the binding site | – | no STD signals were detected | 4.82 µM and 4.8 µM | 7.6 | 92.6 | 99.6 ± 0.2 | 49.1 | – | – | selectivity index (SI) (SARS-CoV-2 [4]; Calu-3 cells, cytotoxicity vs anti-SARS-CoV-2 activity): 6.5 and > 5 |
| CC(=O)O[C@H](CC=C(C)C)C1=CC(=O)c2c(O)ccc(O)c2C1=O [Compound 30, acetylshikonin] | – | > 100 | – | – | > 100 | – | – | – | significant enzyme inhibition | 100 ± 9.5 | CC50 [6]: 65.8 µM; IC50 (M^pro [7]; reported inhibition later described as assay artifact (ref 34)): 3800 nM; IC50 (SARS-CoV-2 [8]; Severe acute respiratory syndrome coronavirus 2, Caco-2, read-out: Anti SARS-CoV-2 activity Caco-2 IC50 (µM)): > 100 µM; IC50 (SARS-CoV-2 PLpro [9]; Z-RLRGG-AMC substrate): 24.3 µM |
| CC(C)=CC[C@]12Oc3cc(O)c([C@H]4C=C(C)C[C@H](c5ccc(O)cc5O)[C@H]4C(=O)c4ccc(O)cc4O)c(O)c3C(=O)[C@@]1(O)Oc1cc(O)ccc12 [Compound 12, sanggenon C] | displacement from the binding site | 23.6 | no STD signals were detected | 7.24 µM and 7.2 µM | 4.6 | – | – | – | – | – | – |
| O=c1cc(-c2ccccc2)oc2cc(O)c(O)c(O)c12 [Compound 4, baicalein, reference compound] | – | – | – | – | – | 8.6 | 90 ± 1.4 | – | – | – | IC50 (M^pro [7]): 980 nM |
| COc1ccc2c(=O)c(Oc3ccc(C(=O)NC(C)Cc4c[nH]c5ccccc45)cc3)coc2c1 (stereo not shown) [Compound 42] | – | – | – | – | – | – | – | > 100 | significant enzyme inhibition | 82.3 ± 25.3 | IC50 (SARS-CoV-2 [8]; Severe acute respiratory syndrome coronavirus 2, Caco-2 cells, read-out: Anti SARS-CoV-2 activity Caco-2 IC50): 7.1 µM; IC50 (SARS-CoV-2 [4]; Severe acute respiratory syndrome coronavirus 2, Calu-3, 48 h, read-out: Anti-SARS-CoV-2 activity IC50 (μM)): > 100 µM; CC50 (in vitro [11]): > 100 µM; inhibition at 20 µM (SARS-CoV-2 PLpro [9]; read-out: SARS-CoV-2 PL^pro enzyme inhibition (%) 20 μM): 4.89 ± 1.3%; inhibition at 100 µM (SARS-CoV-2 PLpro [9]; read-out: SARS-CoV-2 PL^pro enzyme inhibition (%) 100 μM): 8.8 ± 7% |
